Reference: ChEMBL document CHEMBL1201862, “PubChem BioAssay data set” (2004)
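All cell lines were grown in 96-well plates and treated with compound for 48 hours. The concentration for 50% growth inhibition is given as GI50.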 Active and inactive are the calls of the source. Rule as the data show it: active = GI50 up to about 1.1 µM and inactive = higher.

Experiments:
Assay in all cases: NCI tumour cell line growth inhibition, 48 h
RXF 393 = tested on: RXF 393
IGROV-1 = tested on: IGROV-1
SF-268 = tested on: SF-268
COLO 205 = tested on: COLO 205
NCI-H23 = tested on: NCI-H23
SNB-78 = tested on: SNB-78
HOP-62 = tested on: HOP-62
NCI-H226 = tested on: NCI-H226
786-0 = tested on: 786-0
LOX IMVI = tested on: LOX IMVI
KM12 = tested on: KM12
HL-60 = tested on: HL-60
SW-620 = tested on: SW-620
SK-MEL-5 = tested on: SK-MEL-5
SR = tested on: SR
MOLT-4 = tested on: MOLT-4
M19-MEL = tested on: M19-MEL
M14 = tested on: M14
HCC 2998 = tested on: HCC 2998
ACHN = tested on: ACHN
A549 = tested on: A549
HCT-15 = tested on: HCT-15
Malme-3M = tested on: Malme-3M
A498 = tested on: A498
OVCAR-8 = tested on: OVCAR-8
CAKI-1 = tested on: CAKI-1
SK-MEL-28 = tested on: SK-MEL-28
SF-539 = tested on: SF-539
K562 = tested on: K562
SNB-75 = tested on: SNB-75
SNB-19 = tested on: SNB-19
RPMI-8226 = tested on: RPMI-8226
OVCAR-5 = tested on: OVCAR-5
KM-20L2 = tested on: KM-20L2
TK-10 = tested on: TK-10
UACC-257 = tested on: UACC-257
SN12C = tested on: SN12C
SK-MEL-2 = tested on: SK-MEL-2
SF-295 = tested on: SF-295
DMS-114 = tested on: DMS-114
HT-29 = tested on: HT-29
DLD-1 = tested on: DLD-1
OVCAR-3 = tested on: OVCAR-3
EKVX = tested on: EKVX
U-251 = tested on: U-251
NCI-H460 = tested on: NCI-H460
DMS-273 = tested on: DMS-273
SK-OV-3 = tested on: SK-OV-3
UO-31 = tested on: UO-31
HCT-116 = tested on: HCT-116
OVCAR-4 = tested on: OVCAR-4
NCI-H522 = tested on: NCI-H522
UACC-62 = tested on: UACC-62
CCRF-CEM = tested on: CCRF-CEM
HOP-92 = tested on: HOP-92
LXFL 529 = tested on: LXFL 529
XF498 = tested on: XF498

N#Cc1c(CC(=O)O)cc(=O)n2c1[nH]c1ccccc12
GI50 (RXF 393): > 100 µM (inactive) | GI50 (IGROV-1): > 100 µM (inactive) | GI50 (SF-268): > 100 µM (inactive) | GI50 (COLO 205): > 100 µM (inactive) | GI50 (NCI-H23): > 100 µM (inactive) | GI50 (SNB-78): > 100 µM (inactive) | GI50 (HOP-62): > 100 µM (inactive) | GI50 (NCI-H226): > 100 µM (inactive) | GI50 (786-0): > 100 µM (inactive) | GI50 (LOX IMVI): > 100 µM (inactive) | GI50 (KM12): > 100 µM (inactive) | GI50 (HL-60): > 100 µM (inactive) | GI50 (SW-620): > 100 µM (inactive) | GI50 (SK-MEL-5): > 100 µM (inactive) | GI50 (SR): > 100 µM (inactive) | GI50 (MOLT-4): > 100 µM (inactive) | GI50 (M19-MEL): > 100 µM (inactive) | GI50 (M14): > 100 µM (inactive) | GI50 (HCC 2998): > 100 µM (inactive) | GI50 (ACHN): > 100 µM (inactive) | GI50 (A549): > 100 µM (inactive) | GI50 (HCT-15): > 100 µM | GI50 (Malme-3M): > 100 µM (inactive) | GI50 (A498): > 100 µM (inactive) | GI50 (OVCAR-8): > 100 µM (inactive) | GI50 (CAKI-1): > 100 µM (inactive) | GI50 (SK-MEL-28): > 100 µM (inactive) | GI50 (SF-539): > 100 µM (inactive) | GI50 (K562): > 100 µM (inactive) | GI50 (SNB-75): > 100 µM (inactive) | GI50 (SNB-19): > 100 µM (inactive) | GI50 (RPMI-8226): > 100 µM (inactive) | GI50 (OVCAR-5): > 100 µM (inactive) | GI50 (KM-20L2): > 100 µM (inactive) | GI50 (TK-10): > 100 µM (inactive) | GI50 (UACC-257): > 100 µM (inactive) | GI50 (SN12C): > 100 µM (inactive) | GI50 (SK-MEL-2): > 100 µM (inactive) | GI50 (SF-295): > 100 µM (inactive) | GI50 (DMS-114): > 100 µM (inactive) | GI50 (HT-29): > 100 µM (inactive) | GI50 (DLD-1): > 100 µM (inactive) | GI50 (OVCAR-3): > 100 µM (inactive) | GI50 (EKVX): > 100 µM (inactive) | GI50 (U-251): > 100 µM (inactive) | GI50 (NCI-H460): > 100 µM (inactive) | GI50 (DMS-273): > 100 µM (inactive) | GI50 (SK-OV-3): > 100 µM (inactive) | GI50 (UO-31): > 100 µM (inactive) | GI50 (HCT-116): > 100 µM (inactive) | GI50 (OVCAR-4): > 100 µM (inactive)

Cc1cc2c(ccc[n+]2[O-])[n+]([O-])c1
GI50 (RXF 393): 4.74 µM (inactive) | GI50 (IGROV-1): > 100 µM (inactive) | GI50 (SF-268): > 100 µM (inactive) | GI50 (NCI-H522): > 100 µM (inactive) | GI50 (COLO 205): > 100 µM (inactive) | GI50 (NCI-H23): > 100 µM (inactive) | GI50 (UACC-62): > 100 µM (inactive) | GI50 (SNB-78): > 100 µM (inactive) | GI50 (HOP-62): > 100 µM (inactive) | GI50 (NCI-H226): > 100 µM (inactive) | GI50 (KM12): > 100 µM (inactive) | GI50 (HL-60): > 100 µM (inactive) | GI50 (SW-620): > 100 µM (inactive) | GI50 (SK-MEL-5): > 100 µM (inactive) | GI50 (SR): > 100 µM (inactive) | GI50 (CCRF-CEM): > 100 µM (inactive) | GI50 (MOLT-4): > 100 µM (inactive) | GI50 (HOP-92): > 100 µM (inactive) | GI50 (M19-MEL): > 100 µM (inactive) | GI50 (M14): > 100 µM (inactive) | GI50 (HCC 2998): > 100 µM (inactive) | GI50 (ACHN): > 100 µM (inactive) | GI50 (A549): > 100 µM (inactive) | GI50 (HCT-15): > 100 µM | GI50 (Malme-3M): > 100 µM (inactive) | GI50 (OVCAR-8): > 100 µM (inactive) | GI50 (CAKI-1): > 100 µM (inactive) | GI50 (SK-MEL-28): > 100 µM (inactive) | GI50 (SF-539): > 100 µM (inactive) | GI50 (LXFL 529): > 100 µM (inactive) | GI50 (K562): > 100 µM (inactive) | GI50 (SNB-75): > 100 µM (inactive) | GI50 (SNB-19): > 100 µM (inactive) | GI50 (RPMI-8226): > 100 µM (inactive) | GI50 (OVCAR-5): > 100 µM (inactive) | GI50 (KM-20L2): > 100 µM (inactive) | GI50 (TK-10): > 100 µM (inactive) | GI50 (UACC-257): > 100 µM (inactive) | GI50 (SN12C): > 100 µM (inactive) | GI50 (XF498): > 100 µM (inactive) | GI50 (SK-MEL-2): > 100 µM (inactive) | GI50 (SF-295): > 100 µM (inactive) | GI50 (DMS-114): > 100 µM (inactive) | GI50 (HT-29): > 100 µM (inactive) | GI50 (DLD-1): > 100 µM (inactive) | GI50 (OVCAR-3): > 100 µM (inactive) | GI50 (EKVX): > 100 µM (inactive) | GI50 (U-251): > 100 µM (inactive) | GI50 (NCI-H460): > 100 µM (inactive) | GI50 (DMS-273): > 100 µM (inactive) | GI50 (SK-OV-3): > 100 µM (inactive) | GI50 (UO-31): > 100 µM (inactive) | GI50 (HCT-116): > 100 µM (inactive) | GI50 (OVCAR-4): > 100 µM (inactive)

CC(C)OP(=O)(OC(C)C)c1nn(-c2ccc([N+](=O)[O-])cc2)c(=N)s1
GI50 (IGROV-1): > 100 µM (inactive) | GI50 (SF-268): > 100 µM (inactive) | GI50 (NCI-H522): 47.2 µM (inactive) | GI50 (COLO 205): > 100 µM (inactive) | GI50 (NCI-H23): > 100 µM (inactive) | GI50 (UACC-62): > 100 µM (inactive) | GI50 (HOP-62): > 100 µM (inactive) | GI50 (KM12): > 100 µM (inactive) | GI50 (HL-60): 68.1 µM (inactive) | GI50 (SW-620): > 100 µM (inactive) | GI50 (SK-MEL-5): 69.5 µM (inactive) | GI50 (CCRF-CEM): > 100 µM (inactive) | GI50 (MOLT-4): 75.9 µM (inactive) | GI50 (HOP-92): > 100 µM (inactive) | GI50 (M19-MEL): > 100 µM (inactive) | GI50 (M14): > 100 µM (inactive) | GI50 (HCC 2998): 65.5 µM (inactive) | GI50 (ACHN): 80.5 µM (inactive) | GI50 (A549): > 100 µM (inactive) | GI50 (HCT-15): > 100 µM | GI50 (Malme-3M): > 100 µM (inactive) | GI50 (A498): > 100 µM (inactive) | GI50 (OVCAR-8): > 100 µM (inactive) | GI50 (CAKI-1): > 100 µM (inactive) | GI50 (SK-MEL-28): > 100 µM (inactive) | GI50 (SF-539): > 100 µM (inactive) | GI50 (K562): 61.8 µM (inactive) | GI50 (SNB-75): 15 µM (inactive) | GI50 (SNB-19): > 100 µM (inactive) | GI50 (RPMI-8226): > 100 µM (inactive) | GI50 (OVCAR-5): > 100 µM (inactive) | GI50 (KM-20L2): > 100 µM (inactive) | GI50 (TK-10): > 100 µM (inactive) | GI50 (UACC-257): 38.1 µM (inactive) | GI50 (SN12C): > 100 µM (inactive) | GI50 (XF498): 89.5 µM (inactive) | GI50 (SF-295): > 100 µM (inactive) | GI50 (DMS-114): 56.9 µM (inactive) | GI50 (HT-29): > 100 µM (inactive) | GI50 (DLD-1): > 100 µM (inactive) | GI50 (OVCAR-3): 77.8 µM (inactive) | GI50 (EKVX): > 100 µM (inactive) | GI50 (U-251): > 100 µM (inactive) | GI50 (NCI-H460): > 100 µM (inactive) | GI50 (SK-OV-3): > 100 µM (inactive) | GI50 (UO-31): 60.4 µM (inactive) | GI50 (HCT-116): > 100 µM (inactive) | GI50 (OVCAR-4): > 100 µM (inactive)
